This note sets out measurements from patent US11571433B2, “Methods for treating memory impairment and cognitive dysfunction” (CARMEL HAIFA […] CORPORATION LTD., priority 2018, dated 2023).

Each structure is given as a SMILES string.

Test [1] concerns Hippocampal slices from AS mice. In words: High frequency stimulation LTP (fEPSP slope) in area CA1 of hippocampal slices. Particulars: for LTP deficit after high frequency stimulation: AS mice hippocampal slices, MBG 0.5 μM 20 min before, during and 20 min after tetanization, vs vehicle. Format: cell-based, mouse. How it is done:
Electrophysiology: Hippocampal slices were prepared from wild-type and AS model mice as previously described (Kaphzan et al., 2012; Kaphzan et al., 2013). LTP was induced in area CA1 with high frequency stimulation (HFS) by delivering two 100 Hz trains of HFS with an intertrain interval of 20 sec. The initial slope of the field excitatory postsynaptic potential (fEPSP) for each experiment was expressed as the ratio to the average baseline response prior to delivery of HFS.
(§1) Drug handling: Marinobufagenin was kept in stock solution (1 mg/10 ml) in 0.5% DMSO and was freshly diluted to the required concentration 0.042 mg/mL by saline prior to the experiment. At this stock concentration a volume of 100 μL for 16 days in a rate of 0.25 μL/hour correlated to approximately 10 μg/kg/day for a mouse of 25 grams. The exact concentration was calculated for each mouse according to its body weight. As a vehicle 1:200 stock solution of DMSO in water (the maximal concentration of DMSO matched to the maximal dose of MBG, i.e. 10 μg/kg/day) was used. For delivery via osmotic pumps only mice that weigh more than 20 g were used. For LTP studies, marinobufagenin was kept at 100 mM stock solution in DMSO and was freshly dissolved in 1:100,000 carboxygenated artificial cerebrospinal fluid to the final concentration of 1 μM. For chronic injections Alzet osmotic pumps filled with marinobufagenin were used as described (Elkareh et al., 2007; Fedorova et al., 2009; Kennedy et al., 2006; Liu et al., 2012; Yoshika et al., 2007).
Hippocampal slices from WT and AS mice were stimulated with a single train of high frequency stimulation (1 sec 100 Hz-indicated by an arrow). Some of the AS slices were treated with either vehicle or MBG 0.5 μM 20 min before, during and 20 min after tetanization. WT vehicle: mice n=3, slices n=6; AS vehicle: mice n=2, slices n=4; AS MBG: mice n=2, slices n=4. P<0.05 for interaction of time and treatment in 2-way RM-ANOVA. Sample traces 1-baseline, 2-20 min after HFS.

The test system of test [2] is CA1 pyramidal cells. Description: Whole cell recordings of resting membrane potential of CA1 pyramidal cells in hippocampal slices. Format: cell-based. Particulars: MBG 10 μM, 10 min incubation; AS mouse vs WT littermate; P=0.07. How it is done: The effect of a1-NaKA inhibition with MBG 10 μM on the resting membrane potential was tested (FIG. 2). Hippocampal slices were incubated for 10 min with MBG 10 μM. Whole cell recordings of CA1 pyramidal cells show a larger effect on the resting membrane potential of AS mouse compared to a WT littermate. WT 1 mouse, cells n=4. AS: 1 mouse cells n=5. P=0.07 for the interaction in 2 way RM-ANOVA.

The target in test [3] is T1, a1-NaKA (Mus musculus, UniProt Q8VDN2).
T1 construct: Hippocampal slices from WT and AS mice were stimulated; from tissue; host or cells: mouse hippocampal slices (WT and Angelman syndrome model mice)
Description: Inhibition of a1-NaKA. The following applies: 0.5 μM MBG.

Test [4] deals with AS model mice. Description: Contextual fear conditioning. Particulars: IP infusion 10 μg/kg/day by osmotic pump, started 2 weeks before conditioning, tested 24 hours after training. The format is in vivo, mouse. The procedure:
as §1
Contextual fear conditioning: Mice were placed into a standard conditioning chamber and given a two-sec scrambled foot shock (0.75 mA) twice, two minutes and four minutes after session onset. […] The occurrence of freezing was measured every 10 seconds throughout training. […] The occurrence of freezing was measured every 10 sec throughout testing. […]

Test [5] deals with AS model mice. Description: Morris water maze. Format: in vivo, mouse. The following applies: chronic MBG infusion. How it is done: as §1
Morris water maze: MWM experiments were performed as previously described (Kaphzan et al., 2013). […] The animals' trajectories, escape latencies, number of previous platform position crossing, time spent in each quadrant, and swim speed were recorded with a computerized video-tracking system (Noldus EthoVision).

Consider `C[C@]12CC[C@H](O)C[C@@]1(O)CC[C@@H]1[C@@H]2CC[C@]2(C)[C@@H](c3ccc(=O)oc3)C[C@H]3O[C@]132` [MBG, 3-beta,5-dihydroxy-14,15-beta-epoxy-5-beta-bufa-20,22-dienolide], for which, in test [1] (AS hippocampal slices incubated with MBG 1 μM), the HFS-LTP impairment result is given as “rescue of the impaired LTP phenotype”. Further, the “LTP deficit after high frequency stimulation” value in test [1] is “induced a recovery of LTP deficit”; in test [1] (listed as marinobufagenin) it was “correction of long-term potentiation defects”. Further, the baseline synaptic transmission entry in test [1] (hippocampal slices incubated with MBG 1 μM) is “no effect on baseline synaptic transmission”; in test [1] (hippocampal slices, MBG 0.5 μM) it was “did not affect baseline synaptic transmission”. The “effect on resting membrane potential” value in test [2] is “larger effect in AS mice than in wild-type littermates”. Further, in test [3], the “Inhibition of a1-NaKA” value was “partial and mild”. Moreover, the contextual fear memory entry in test [4] is reported as “corrects impaired contextual fear memory”. The “visuospatial memory in the Morris water maze” value in test [5] is “impairment is corrected”.
